From patent US9688627B2, “Lactam compounds as EP4 receptor-selective agonists for use in the treatment of EP4-mediated diseases and conditions” (Cayman Chemical Company, Inc., priority 2013, dated 2017)

How the values were obtained:
[1] = target: T1, rat EP2 receptor (Rattus norvegicus, UniProt Q62928); assay: SEAP activity assay on EP2 STEP plate; type: cell-based; conditions: SEAP luminescence, 6-8 hours of stimulation; read-out: STEP cell functional assay EC50 SEAP/EP2
T1 construct: cells seeded on STEP plates
Text: (§1) 2. […] In addition each concentration had triplicates. […] 4. […] Cover the plate with the lid. […] 6. […] 7. […] 8.

[2] = target: T2, rat EP4 receptor (Rattus norvegicus, UniProt P43114); assay: SEAP activity assay on EP4 STEP plate; type: cell-based; conditions: SEAP luminescence, 6-8 hours of stimulation; read-out: STEP cell functional assay EC50 SEAP/EP4
T2 construct: cells seeded on STEP plates
Text: as §1

T2 sequence (P43114 whole entry): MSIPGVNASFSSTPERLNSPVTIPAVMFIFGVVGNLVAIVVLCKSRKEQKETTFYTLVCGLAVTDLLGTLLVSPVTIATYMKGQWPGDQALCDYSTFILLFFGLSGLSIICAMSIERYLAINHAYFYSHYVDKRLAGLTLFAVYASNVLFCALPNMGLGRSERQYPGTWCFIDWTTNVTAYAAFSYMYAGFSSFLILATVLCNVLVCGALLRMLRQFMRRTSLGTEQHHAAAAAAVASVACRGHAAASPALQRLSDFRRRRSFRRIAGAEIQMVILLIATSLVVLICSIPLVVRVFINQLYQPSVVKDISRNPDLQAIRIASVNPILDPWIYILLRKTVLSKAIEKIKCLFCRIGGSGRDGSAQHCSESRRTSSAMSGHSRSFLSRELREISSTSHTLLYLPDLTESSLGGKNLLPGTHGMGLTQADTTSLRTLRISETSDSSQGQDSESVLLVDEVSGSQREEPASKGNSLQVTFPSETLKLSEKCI
T1 sequence (Q62928 whole entry): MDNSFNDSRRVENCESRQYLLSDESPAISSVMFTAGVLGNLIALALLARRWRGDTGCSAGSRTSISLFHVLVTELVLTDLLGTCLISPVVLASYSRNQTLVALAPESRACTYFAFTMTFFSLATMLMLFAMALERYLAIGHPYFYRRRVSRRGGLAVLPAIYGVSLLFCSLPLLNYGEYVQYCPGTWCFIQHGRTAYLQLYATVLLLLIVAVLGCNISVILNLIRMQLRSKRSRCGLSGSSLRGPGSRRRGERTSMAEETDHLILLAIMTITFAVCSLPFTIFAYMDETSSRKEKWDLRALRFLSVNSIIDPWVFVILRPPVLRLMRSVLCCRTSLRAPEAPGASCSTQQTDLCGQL

Compound | EC50 [1] [nM] | EC50 [2] [nM]
CC#CCC(C)[C@@H](O)/C=C/[C@H]1CCC(=O)N1CCc1ccc(C(=O)O)cc1 (mixture of isomers) [Example 8D, 4-(2-((2R)-2-((3R,4R/S,E)-3-hydroxy-4-methyloct-1-en-6-yn-1-yl)-5-oxopyrrolidin-1-yl)ethyl)benzoic acid] | 1130 | 13.4
O=C(O)CCCCCCN1C(=O)CC[C@@H]1/C=C/[C@@H](O)CCC#Cc1ccccc1 [Example 5C, 7-((R)-2-((3S,E)-3-hydroxy-7-phenylhept-1-en-6-yn-1-yl)-5-oxopyrrolidin-1-yl)heptanoic acid] | – | 111
CCC#CCC(C)[C@@H](O)/C=C/[C@H]1CCC(=O)N1C/C=C\c1ccc(C(=O)O)s1 (mixture of isomers) [Example 15D, 5-((Z)-3-((2R)-2-((3R,4R/S,E)-3-hydroxy-4-methylnon-1-en-6-yn-1-yl)-5-oxopyrrolidin-1-yl)prop-1-en-1-yl)thiophene-2-carboxylic acid] | > 10000 | 1600
CCC#CCC(C)[C@H](O)/C=C/[C@H]1CCC(=O)N1CC#Cc1ccc(C(=O)O)s1 (stereo partly drawn) [Example 13C, 5-(3-((2R)-2-((3S,E)-3-hydroxy-4-methylnon-1-en-6-yn-1-yl)-5-oxopyrrolidin-1-yl)prop-1-yn-1-yl)thiophene-2-carboxylic acid] | > 10000 | 18.3
CC#CCC(C)[C@@H](O)/C=C/[C@H]1CCC(=O)N1CCc1ccc(C(=O)OC)cc1 (mixture of isomers) [Example 8B, methyl 4-(2-((2R)-2-((3R,4R/S,E)-3-hydroxy-4-methyloct-1-en-6-yn-1-yl)-5-oxopyrrolidin-1-yl)ethyl)benzoate] | – | 1640
CCC#CCC(C)[C@@H](O)/C=C/[C@H]1CCC(=O)N1CCCc1ccc(C(=O)O)s1 (stereo partly drawn) [Example 17G, 5-(3-((R)-2-((3R,E)-3-hydroxy-4-methylnon-1-en-6-yn-1-yl)-5-oxopyrrolidin-1-yl)propyl)thiophene-2-carboxylic acid] | > 10000 | 18.4
CC(CC#Cc1ccccc1)[C@@H](O)/C=C/[C@H]1CCC(=O)N1C/C=C\c1ccc(C(=O)O)s1 (mixture of isomers) [Example 16D, 5-((Z)-3-((2R)-2-((3R,4R/S,E)-3-hydroxy-4-methyl-7-phenylhept-1-en-6-yn-1-yl)-5-oxopyrrolidin-1-yl)prop-1-en-1-yl)thiophene-2-carboxylic acid] | > 10000 | 1200
CCC#CCC(C)[C@@H](O)/C=C/[C@H]1CCC(=O)N1CC#Cc1ccc(C(=O)O)s1 (stereo partly drawn) [Example 13D, 5-(3-((2R)-2-((3R,E)-3-hydroxy-4-methylnon-1-en-6-yn-1-yl)-5-oxopyrrolidin-1-yl)prop-1-yn-1-yl)thiophene-2-carboxylic acid] | > 10000 | –
CCCC#CCC(C)[C@@H](O)/C=C/[C@H]1CCC(=O)N1CCCCCCC(=O)OC (mixture of isomers) [Example 3B, methyl 7-((2R)-2-((3R,4R/S,E)-3-hydroxy-4-methyldec-1-en-6-yn-1-yl)-5-oxopyrrolidin-1-yl)heptanoate] | > 10000 | 223
CCCC#CCC(C)[C@@H](O)/C=C/[C@H]1CCC(=O)N1CCCCCCC(=O)O (mixture of isomers) [Example 3D, 7-((2R)-2-((3R,4R/S,E)-3-hydroxy-4-methyldec-1-en-6-yn-1-yl)-5-oxopyrrolidin-1-yl)heptanoic acid] | > 10000 | 29
CC#CCC(C)[C@H](O)/C=C/[C@H]1CCC(=O)N1Cc1ccc(CC(=O)O)cc1 (mixture of isomers) [Example 12C, 2-(4-(((2R)-2-((3S,4R/S,E)-3-hydroxy-4-methyloct-1-en-6-yn-1-yl)-5-oxopyrrolidin-1-yl)methyl)phenyl)acetic acid] | > 10000 | 2290
CCC#C[C@@H](O)/C=C/[C@H]1CCC(=O)N1CCCCCCC(=O)OC (single isomer, unassigned) [Example 6B] | > 2000 | –
O=C(O)CCCCCCN1C(=O)CC[C@@H]1/C=C/[C@H](O)CCC#Cc1ccccc1 [Example 5D, 7-((R)-2-((3R,E)-3-hydroxy-7-phenylhept-1-en-6-yn-1-yl)-5-oxopyrrolidin-1-yl)heptanoic acid] | – | 46.8

Now from value to compound:

EC50 [1] [nM] | EC50 [2] [nM] | Compound
– | 1.06 ± 0.11 | CCC#CC[C@@H](C)[C@H](O)/C=C/[C@H]1CCC(=O)N1CCCCCCC(=O)O [Example 2F, 7-((R)-2-((3S,4R,E)-3-hydroxy-4-methylnon-1-en-6-yn-1-yl)-5-oxopyrrolidin-1-yl)heptanoic acid]
1750 | 3.51 | CC(CC#Cc1ccccc1)[C@@H](O)/C=C/[C@H]1CCC(=O)N1CCc1ccc(C(=O)O)cc1 (mixture of isomers) [Example 11D, 4-(2-((2R)-2-((3R,4R/S,E)-3-hydroxy-4-methyl-7-phenylhept-1-en-6-yn-1-yl)-5-oxopyrrolidin-1-yl)ethyl)benzoic acid]
2960 | 0.054 | CC(CC#Cc1ccccc1)[C@H](O)/C=C/[C@H]1CCC(=O)N1CCc1ccc(C(=O)O)cc1 (mixture of isomers) [Example 11C, 4-(2-((2R)-2-((3S,4R/S,E)-3-hydroxy-4-methyl-7-phenylhept-1-en-6-yn-1-yl)-5-oxopyrrolidin-1-yl)ethyl)benzoic acid]
830 | 2.49 | CC(CC#Cc1ccccc1)[C@H](O)/C=C/[C@H]1CCC(=O)N1CCCCCCC(=O)O (mixture of isomers) [Example 4C, 7-((2R)-2-((3S,4R/S,E)-3-hydroxy-4-methyl-7-phenylhept-1-en-6-yn-1-yl)-5-oxopyrrolidin-1-yl)heptanoic acid]
– | 4.79 | CCC#C[C@@H](O)/C=C/[C@H]1CCC(=O)N1CCCCCCC(=O)O [Example 6D, 7-((R)-2-((S,E)-3-hydroxyhept-1-en-4-yn-1-yl)-5-oxopyrrolidin-1-yl)heptanoic acid]
> 10000 | < 0.01 | CC(CC#Cc1ccccc1)[C@H](O)/C=C/[C@H]1CCC(=O)N1CCCc1ccc(C(=O)O)s1 (stereo partly drawn) [Example 18C, 5-(3-((2R)-2-((3S,E)-3-hydroxy-4-methyl-7-phenylhept-1-en-6-yn-1-yl)-5-oxopyrrolidin-1-yl)propyl)thiophene-2-carboxylic acid]
> 10000 | 2.03 | CC(CC#Cc1ccccc1)[C@@H](O)/C=C/[C@H]1CCC(=O)N1CCCc1ccc(C(=O)O)s1 (stereo partly drawn) [Example 18D, 5-(3-((2R)-2-((3R,E)-3-hydroxy-4-methyl-7-phenylhept-1-en-6-yn-1-yl)-5-oxopyrrolidin-1-yl)propyl)thiophene-2-carboxylic acid]
364 | 6.74 | CC#CCC(C)[C@H](O)/C=C/[C@H]1CCC(=O)N1CCc1ccc(C(=O)OC)cc1 (mixture of isomers) [Example 8A, methyl 4-(2-((2R)-2-((3S,4R/S,E)-3-hydroxy-4-methyloct-1-en-6-yn-1-yl)-5-oxopyrrolidin-1-yl)ethyl)benzoate]
1420 | 0.145 | CCC#CCC(C)[C@@H](O)/C=C/[C@H]1CCC(=O)N1CCCCCCC(=O)O (mixture of isomers) [Example 2D, 7-((2R)-2-((3R,4R/S,E)-3-hydroxy-4-methylnon-1-en-6-yn-1-yl)-5-oxopyrrolidin-1-yl)heptanoic acid]
– | 4.73 | CCC#C[C@H](O)/C=C/[C@H]1CCC(=O)N1CCCCCCC(=O)O [Example 6C, 7-((R)-2-((R,E)-3-hydroxyhept-1-en-4-yn-1-yl)-5-oxopyrrolidin-1-yl)heptanoic acid]
